Assay results taken from patent US20240270762A1, “PENICILLIN-BINDING PROTEIN INHIBITORS” (priority 2021, published 2024).
In brackets after ≈: the same amount, converted by molar mass.

Tests used:
[1] = target: T1, PBP3 from Escherichia coli (K-12) (Escherichia coli, UniProt P0AD68); test: Bocillin-FL fluorescence polarization competition binding, E. coli PBP3
T1 construct: made in house
Method in brief: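 Purified PBPs pre-incubated with inhibitor (E. coli PBP3 1.5 μM, 30 min; P. aeruginosa PBP3 0.75 μM, A. baumannii PBP1a 1 μM and PBP3 0.2 μM, 15 min), then Bocillin-FL 0.1 μM (0.05 μM for PBP1a) added; FP read up to 60 min. EC50 = concentration halving bound Bocillin-FL.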

P. aeruginosa ATCC 27853 = test: microbe, parasite or virus in culture; format: cell-based; settings: Pseudomonas aeruginosa, ATCC27853, read-out: Minimum inhibitory concentration, P. aeruginosa ATCC 27853
A. baumannii ATCC 19606 = test: microbe, parasite or virus in culture; format: cell-based; settings: Acinetobacter baumannii, ATCC19606, read-out: MIC, A. baumannii ATCC 19606
P. aeruginosa ATCC 35151 = test: microbe, parasite or virus in culture; format: cell-based; settings: Pseudomonas aeruginosa, ATCC35151, read-out: Minimum inhibitory concentration, P. aeruginosa ATCC 35151
P. aeruginosa CDC-0054 = test: microbe, parasite or virus in culture; format: cell-based; settings: Pseudomonas aeruginosa, CDC0054, read-out: Minimum inhibitory concentration, P. aeruginosa CDC-0054
P. aeruginosa CDC-0090 = test: microbe, parasite or virus in culture; format: cell-based; settings: Pseudomonas aeruginosa, CDC0090, read-out: Minimum inhibitory concentration, P. aeruginosa CDC-0090
P. aeruginosa CDC-0095 = test: microbe, parasite or virus in culture; format: cell-based; settings: Pseudomonas aeruginosa, CDC0095, read-out: Minimum inhibitory concentration, P. aeruginosa CDC-0095
A. baumannii CDC-0033 = test: microbe, parasite or virus in culture; format: cell-based; settings: Acinetobacter baumannii, CDC0033, read-out: MIC, A. baumannii CDC-0033
A. baumannii CDC-0045 = test: microbe, parasite or virus in culture; format: cell-based; settings: Acinetobacter baumannii, CDC0045, read-out: MIC, A. baumannii CDC-0045
A. baumannii CDC-0083 = test: microbe, parasite or virus in culture; format: cell-based; settings: Acinetobacter baumannii, CDC0083, read-out: MIC, A. baumannii CDC-0083
[2] = tested on: B. thailandensis ATCC 700388; test: microbe, parasite or virus in culture; format: cell-based; settings: Burkholderia thailandensis, ATCC700388, read-out: Minimum inhibitory concentration (MIC), B. thailandensis ATCC 700388
[3] = tested on: B. humptydooensis ATCC BAA-2767; test: microbe, parasite or virus in culture; format: cell-based; settings: Burkholderia humptydooensis, ATCCBAA2767, read-out: Minimum inhibitory concentration (MIC), B. humptydooensis ATCC BAA-2767

T1 sequence (P0AD68 1-577): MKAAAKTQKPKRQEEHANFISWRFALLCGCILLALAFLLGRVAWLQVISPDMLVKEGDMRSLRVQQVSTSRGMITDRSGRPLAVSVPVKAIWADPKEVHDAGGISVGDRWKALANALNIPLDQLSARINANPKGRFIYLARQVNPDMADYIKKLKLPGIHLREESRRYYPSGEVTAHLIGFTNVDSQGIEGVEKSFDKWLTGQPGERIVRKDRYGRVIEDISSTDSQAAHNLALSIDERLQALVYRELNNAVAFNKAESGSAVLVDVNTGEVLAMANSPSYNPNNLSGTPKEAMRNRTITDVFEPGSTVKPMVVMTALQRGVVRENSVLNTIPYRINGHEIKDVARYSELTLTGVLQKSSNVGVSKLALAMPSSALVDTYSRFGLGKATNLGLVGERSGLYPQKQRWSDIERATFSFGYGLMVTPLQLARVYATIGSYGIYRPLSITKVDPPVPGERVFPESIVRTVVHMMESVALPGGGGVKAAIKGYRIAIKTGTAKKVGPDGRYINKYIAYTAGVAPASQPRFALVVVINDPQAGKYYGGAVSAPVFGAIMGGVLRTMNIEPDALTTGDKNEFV

| SMILES | EC50 [1] [µM] | MIC (P. aeruginosa ATCC 27853) [µg/mL] | MIC (A. baumannii ATCC 19606) [µg/mL] | MIC (P. aeruginosa ATCC 35151) [µg/mL] | MIC (P. aeruginosa CDC-0054) [µg/mL] | MIC (P. aeruginosa CDC-0090) [µg/mL] | MIC (P. aeruginosa CDC-0095) [µg/mL] | MIC (A. baumannii CDC-0033) [µg/mL] | MIC (A. baumannii CDC-0045) [µg/mL] | MIC (A. baumannii CDC-0083) [µg/mL] | MIC [2] [µg/mL] | MIC [3] [µg/mL] |
| --- | --- | --- | --- | --- | --- | --- | --- | --- | --- | --- | --- | --- |
| O=C(NCCCN1CCN(C(=O)N[C@@H](C(=O)N[C@H]2Cc3ccc(F)c(C(=O)O)c3OB2O)c2cc(F)c(O)c(O)c2Cl)C(=O)C1=O)c1cc(F)nc(F)c1 (racemic) [Example 401] | < 10 | 2 to 4 (≈ 2.56 to 5.12 µM) | < 1 | < 1 | < 1 | < 1 | < 1 | 2 to 4 (≈ 2.56 to 5.12 µM) | < 1 | 2 to 4 (≈ 2.56 to 5.12 µM) | > 128 | > 128 |
| O=C(NCCCN1CCN(C(=O)N[C@@H](C(=O)N[C@H]2Cc3ccc(F)c(C(=O)O)c3OB2O)c2cc(F)c(O)c(O)c2Cl)C(=O)C1=O)c1ccc(O)cc1F (racemic) [Example 417] | < 10 | 8 to 16 (≈ 10.3 to 20.6 µM) | < 1 | < 1 | 8 to 16 (≈ 10.3 to 20.6 µM) | 8 to 16 (≈ 10.3 to 20.6 µM) | 8 to 16 (≈ 10.3 to 20.6 µM) | 2 to 4 (≈ 2.57 to 5.14 µM) | < 1 | > 128 | > 128 | > 128 |
| O=C(NCCCN1CCN(C(=O)N[C@@H](C(=O)N[C@H]2Cc3ccc(F)c(C(=O)O)c3OB2O)c2cc(F)c(O)c(O)c2Cl)C(=O)C1=O)c1c(F)cc(O)cc1F (racemic) [Example 420] | < 10 | 2 to 4 (≈ 2.51 to 5.03 µM) | < 1 | < 1 | 2 to 4 (≈ 2.51 to 5.03 µM) | < 1 | 2 to 4 (≈ 2.51 to 5.03 µM) | 2 to 4 (≈ 2.51 to 5.03 µM) | < 1 | > 128 | 2 to 4 (≈ 2.51 to 5.03 µM) | 3 (≈ 3.77 µM) |
| CS(=O)(=O)N1CCN(C(=O)N[C@@H](C(=O)N[C@H]2Cc3cccc(C(=O)O)c3OB2O)c2ccc(P(=O)(O)O)cc2)C1=O (single isomer, unassigned) [Example 6] | < 10 | 32 to 64 (≈ 52.4 to 105 µM) | 8 to 16 (≈ 13.1 to 26.2 µM) | 2 to 4 (≈ 3.28 to 6.55 µM) | > 128 | > 128 | > 128 | 32 to 64 (≈ 52.4 to 105 µM) | > 128 | > 128 | 8 to 16 (≈ 13.1 to 26.2 µM) | 2 to 4 (≈ 3.28 to 6.55 µM) |
| O=C(NCCCN1CCN(C(=O)N[C@H](C(=O)N[C@H]2Cc3ccc(F)c(C(=O)O)c3OB2O)c2cc(F)c(O)c(O)c2Cl)C(=O)C1=O)c1ccc(O)cc1Cl (single isomer, unassigned) [Example 470] | 50 to 250 | 2 to 4 (≈ 2.52 to 5.04 µM) | 8 to 16 (≈ 10.1 to 20.1 µM) | < 1 | < 1 | 2 to 4 (≈ 2.52 to 5.04 µM) | < 1 | 8 to 16 (≈ 10.1 to 20.1 µM) | > 128 | > 128 | > 128 | 8 to 16 (≈ 10.1 to 20.1 µM) |
| O=C(NCCCN1CCN(C(=O)N[C@@H](C(=O)N[C@H]2Cc3ccc(F)c(C(=O)O)c3OB2O)c2cc(F)c(O)c(O)c2Cl)C(=O)C1=O)c1ccc(O)cc1Cl (single isomer, unassigned) [Example 471] | < 10 | < 1 | < 1 | < 1 | < 1 | < 1 | < 1 | 2 to 4 (≈ 2.52 to 5.04 µM) | < 1 | > 128 | < 1 | < 1 |
| O=C(NCCCN1CCN(C(=O)N[C@H](C(=O)N[C@H]2Cc3ccc(F)c(C(=O)O)c3OB2O)c2cc(F)c(O)c(O)c2Cl)C(=O)C1=O)c1cc(F)c(O)cc1F (single isomer, unassigned) [Example 472] | 50 to 250 | 2 to 4 (≈ 2.51 to 5.03 µM) | 2 to 4 (≈ 2.51 to 5.03 µM) | < 1 | < 1 | 2 to 4 (≈ 2.51 to 5.03 µM) | < 1 | 8 to 16 (≈ 10.1 to 20.1 µM) | 8 to 16 (≈ 10.1 to 20.1 µM) | > 128 | 2 to 4 (≈ 2.51 to 5.03 µM) | 2 to 4 (≈ 2.51 to 5.03 µM) |
| O=C(NCCCN1CCN(C(=O)N[C@@H](C(=O)N[C@H]2Cc3ccc(F)c(C(=O)O)c3OB2O)c2cc(F)c(O)c(O)c2Cl)C(=O)C1=O)c1cc(F)c(O)cc1F (single isomer, unassigned) [Example 473] | < 10 | 2 to 4 (≈ 2.51 to 5.03 µM) | < 1 | < 1 | < 1 | 2 to 4 (≈ 2.51 to 5.03 µM) | < 1 | 2 to 4 (≈ 2.51 to 5.03 µM) | < 1 | > 128 | < 1 | < 1 |
| O=C(NCCCS(=O)(=O)N1CCN(C(=O)NC(C(=O)N[C@H]2Cc3ccc(F)c(C(=O)O)c3OB2O)c2cc(F)c(O)c(O)c2Cl)C1=O)Nc1cccc(O)c1 (stereo partly drawn) [Example 277, (3R)-3-(2-(2-chloro-5-fluoro-3,4-dihydroxyphenyl)-2-(3-((3-(3-(3-hydroxyphenyl)ureido)propyl)sulfonyl)-2-oxoimidazolidine-1-carboxamido)acetamido)-7-fluoro-2-hydroxy-3,4-dihydro-2H-benzo[e][1,2]oxaborinine-8-carboxylic acid] | < 10 | 2 to 4 (≈ 2.47 to 4.93 µM) | < 1 | < 1 | 2 to 4 (≈ 2.47 to 4.93 µM) | 2 to 4 (≈ 2.47 to 4.93 µM) | 8 to 16 (≈ 9.87 to 19.7 µM) | 2 to 4 (≈ 2.47 to 4.93 µM) | 2 to 4 (≈ 2.47 to 4.93 µM) | < 1 | 32 to 64 (≈ 39.5 to 78.9 µM) | > 128 |
| O=C(NCCCS(=O)(=O)N1CCN(C(=O)NC(C(=O)N[C@H]2Cc3ccc(F)c(C(=O)O)c3OB2O)c2cc(F)c(O)c(O)c2Cl)C1=O)Nc1cccnc1 (stereo partly drawn) [Example 278, (3R)-3-(2-(2-chloro-5-fluoro-3,4-dihydroxyphenyl)-2-(2-oxo-3-((3-(3-(pyridin-3-yl)ureido)propyl)sulfonyl)imidazolidine-1-carboxamido)acetamido)-7-fluoro-2-hydroxy-3,4-dihydro-2H-benzo[e][1,2]oxaborinine-8-carboxylic acid] | < 10 | 2 to 4 (≈ 2.51 to 5.03 µM) | < 1 | < 1 | 2 to 4 (≈ 2.51 to 5.03 µM) | 2 to 4 (≈ 2.51 to 5.03 µM) | 8 to 16 (≈ 10.1 to 20.1 µM) | 8 to 16 (≈ 10.1 to 20.1 µM) | < 1 | < 1 | 2 to 4 (≈ 2.51 to 5.03 µM) | 2 to 4 (≈ 2.51 to 5.03 µM) |
| O=C(NCCN1CCN(C(=O)N[C@@H](C(=O)N[C@H]2Cc3ccc(F)c(C(=O)O)c3OB2O)c2cc(F)c(O)c(O)c2Cl)C1=O)Nc1ccc(O)cc1 [Example 279, (R)-3-((R)-2-(2-chloro-5-fluoro-3,4-dihydroxyphenyl)-2-(3-(2-(3-(4-hydroxyphenyl)ureido)ethyl)-2-oxoimidazolidine-1-carboxamido)acetamido)-7-fluoro-2-hydroxy-3,4-dihydro-2H-benzo[e][1,2]oxaborinine-8-carboxylic acid] | < 10 | 2 to 4 (≈ 2.73 to 5.46 µM) | < 1 | < 1 | < 1 | 2 to 4 (≈ 2.73 to 5.46 µM) | 2 to 4 (≈ 2.73 to 5.46 µM) | 2 to 4 (≈ 2.73 to 5.46 µM) | < 1 | < 1 | < 1 | < 1 |
| O=C(NCCCN1CCN(C(=O)NC(C(=O)N[C@H]2Cc3ccc(F)c(C(=O)O)c3OB2O)c2cc(F)c(O)c(O)c2Cl)C1=O)c1ccc(O)cc1 (stereo partly drawn) [Example 280, (3R)-3-(2-(2-chloro-5-fluoro-3,4-dihydroxyphenyl)-2-(3-(3-(4-hydroxybenzamido)propyl)-2-oxoimidazolidine-1-carboxamido)acetamido)-7-fluoro-2-hydroxy-3,4-dihydro-2H-benzo[e][1,2]oxaborinine-8-carboxylic acid] | 10 to 50 | 2 to 4 (≈ 2.73 to 5.47 µM) | < 1 | < 1 | 2 to 4 (≈ 2.73 to 5.47 µM) | 2 to 4 (≈ 2.73 to 5.47 µM) | 8 to 16 (≈ 10.9 to 21.9 µM) | 2 to 4 (≈ 2.73 to 5.47 µM) | < 1 | 2 to 4 (≈ 2.73 to 5.47 µM) | 2 to 4 (≈ 2.73 to 5.47 µM) | 2 to 4 (≈ 2.73 to 5.47 µM) |
